Like-named read-outs stand apart in the source and are kept apart here.
How the values were obtained:
SD IGS rats [1] = assay: Contribution of inhibition of adenosine A2b receptor to defecation-promoting action (Test Example 3); type: in vivo, rat
Protocol: SD IGS rats (6-weeks-old, from Charles River) were placed in cages (3 animals/cage) and preliminarily allowed food and water ad libitum and raised for 1 week. On the day of the experiment, their weight was measured, a water-absorbing sheet was placed below each cage, and the animals were fasted but allowed water ad libitum throughout the experiment. Three hours after fasting was initiated, the fecal pellets were recovered from each cage and observed for abnormality before the experiment, and then the compound suspended or dissolved in 0.5% (W/V) methyl cellulose (MC) was orally administered into each rat in a dose of 5 ml/kg. On one hand, 0.5% (W/V) MC only was orally given to the control group. After administering the compound, the rats were returned to the cage provided with a new water-absorbing sheet of known weight, and 180 minutes after the administration, the fecal pellets on the water-absorbing sheet were recovered from each cage, and the external appearance was observed, and the number of fecal pellets was counted. […] After the fecal pellets were recovered, the water-absorbing sheet was weighed, and the weight determined by subtracting the initial weight of the water-adsorbing sheet from the weight after the experiment was regarded as the volume of urine and expressed as the volume of urine per 100 g of the body weight (Table 4). […]

SD IGS rats [2] = assay: Defecation-promoting action in rat, number of fecal pellets (Test Example 2); type: in vivo; settings: for The number of fecal pellets/3 rats: Test Example 2
Protocol: SD IGS rats (6-weeks-old, from Charles River) were placed in cages (3 animals/cage) and preliminarily allowed food and water ad libitum and raised for 1 week. On the day of the experiment, their weight was measured, a water-absorbing sheet was placed below each cage, and the animals were fasted but allowed water ad libitum throughout the experiment. Three hours after fasting was initiated, the fecal pellets were recovered from each cage and observed for abnormality before the experiment, and then the compound suspended or dissolved in 0.5% (W/V) methyl cellulose (MC) was orally administered into each rat in a dose of 5 ml/kg. On one hand, 0.5% (W/V) MC only was orally given to the control group. After administering the compound, the rats were returned to the cage provided with a new water-absorbing sheet of known weight, and 180 minutes after the administration, the fecal pellets on the water-absorbing sheet were recovered from each cage, and the external appearance was observed, and the number of fecal pellets was counted. The number of fecal pellets is expressed per each cage (Table 4). After the fecal pellets were recovered, the water-absorbing sheet was weighed, and the weight determined by subtracting the initial weight of the water-adsorbing sheet from the weight after the experiment was regarded as the volume of urine and expressed as the volume of urine per 100 g of the body weight (Table 4).

[3] = Urine volume in rat (Test Example 2); type: in vivo; settings: rats, oral, Table 4
Protocol: SD IGS rats (6-weeks-old, from Charles River) were placed in cages (3 animals/cage) and preliminarily allowed food and water ad libitum and raised for 1 week. On the day of the experiment, their weight was measured, a water-absorbing sheet was placed below each cage, and the animals were fasted but allowed water ad libitum throughout the experiment. Three hours after fasting was initiated, the fecal pellets were recovered from each cage and observed for abnormality before the experiment, and then the compound suspended or dissolved in 0.5% (W/V) methyl cellulose (MC) was orally administered into each rat in a dose of 5 ml/kg. On one hand, 0.5% (W/V) MC only was orally given to the control group. After administering the compound, the rats were returned to the cage provided with a new water-absorbing sheet of known weight, and 180 minutes after the administration, the fecal pellets on the water-absorbing sheet were recovered from each cage, and the external appearance was observed, and the number of fecal pellets was counted. […] After the fecal pellets were recovered, the water-absorbing sheet was weighed, and the weight determined by subtracting the initial weight of the water-adsorbing sheet from the weight after the experiment was regarded as the volume of urine and expressed as the volume of urine per 100 g of the body weight (Table 4).

[4] = tested on: guinea pig distal colon longitudinal muscles; settings: KCl + tetrodotoxin, cited from earlier work
[5] = tested on: guinea pig distal colon longitudinal muscles; settings: cited from earlier work; for pA2 value of the antagonistic action on the relaxing action of NECA: electrical stimulation
[6] = tested on: rat distal colon longitudinal muscles; settings: cited from earlier work; for Relaxation of Carbachol-contracted muscles: agonist added at 0.1 to 30 μM
SD IGS rats [7] = assay: Evaluation of defecation-promoting action (Table 10); type: in vivo, rat; settings: 180 minutes, n = 6 cages/group
Protocol: That is, SD IGS rats (6-to 7-weeks-old, from Charles River) were placed in cages (3 animals/cage) and preliminarily allowed food and water ad libitum and raised for 1 week. On the day of the experiment, their weight was measured, a water-absorbing sheet was placed below each cage, and the animals were fasted but allowed water ad libitum throughout the experiment. Thee hours after fasting was initiated, the fecal pellets were recovered from each cage and observed for abnormality before the experiment, and then the compound suspended in 0.5% (w/v) methyl cellulose (MC) was orally administered in a dose of 5 ml/kg. On one hand, 0.5% (w/v) MC only was orally given to the control group. After administration of the compound, the rats were returned to the cage provided with a new water-absorbing sheet, and 180 minutes after the administration, the fecal pellets on the water-absorbing sheet were recovered from each cage, and the external appearance was observed, and the number of fecal pellets was counted. The number of fecal pellets is expressed per each cage.

[8] = tested on: guinea pig colon longitudinal muscles; settings: 100 nM; cited from earlier work

SMILES: CCCn1c(=O)c2[nH]c(C34CC5CC(CC3C5)C4)nc2n(CCC)c1=O [KW3902]
- The number of fecal pellets/3 rats (SD IGS rats [1]; KW3902 1 mg/kg together with KW6002 1 mg/kg, 180 minutes): 18.25 ± 1.49 fecal pellets/3 rats
- The number of fecal pellets/3 rats (SD IGS rats [1]; KW3902 1 mg/kg without KW6002, 180 minutes): 9.00 ± 1.08 fecal pellets/3 rats
- The number of fecal pellets/3 rats (SD IGS rats [2]; 0.3 mg/kg oral, 180 minutes after administration): 10.67 ± 2.08 fecal pellets/3 rats
- The number of fecal pellets/3 rats (SD IGS rats [2]; 1 mg/kg oral, 180 minutes): 14.50 ± 1.18 fecal pellets/3 rats
- The number of fecal pellets/3 rats (SD IGS rats [2]; 3 mg/kg oral, 180 minutes): 12.83 ± 1.66 fecal pellets/3 rats
- Diuretic action (in words) [3]: stronger diuretic action than Compound I

SMILES: Cn1c(=O)c2[nH]c(-c3ccccc3)nc2n(C)c1=O [Example 8-PT, 8-phenyltheophylline]
- pA2 value upon inhibition of the action of NECA ([4]; 10 μM): 5.7
- pA2 value of the antagonistic action on the relaxing action of NECA [5]: 6.5

SMILES: CCCn1c(=O)c2[nH]c(C3CCCC3)nc2n(CCC)c1=O [DPCPX]
- Antagonistic action on the relaxing action ([4]; 1 nM): did not show an antagonistic action
- Antagonistic action on the relaxing action of NECA and CPA ([4]; 10 nM): inhibited the relaxing action of NECA and CPA
- pA2 value against CPA [4]: 7.0
- pA2 value against NECA [4]: 6.6
- Antagonism of the relaxing action of NECA and CPA ([6]; 1 μM): antagonized
- pA2 value of the antagonistic action on the relaxing action of NECA [5]: 8.8

SMILES: Nc1nc(N)c(-c2ccncc2)c(-c2cccc(F)c2)n1 [Example 1, 6-(3-Flurophenyl)-5-(4-pyridyl)-2,4-pyrimidine diamine]
- The number of fecal pellets/3 rats (SD IGS rats [7]; 3 mg/kg oral): 14.83 ± 1.82 fecal pellets/3 rats
- The number of fecal pellets/3 rats (SD IGS rats [7]; 10 mg/kg oral): 23.17 ± 2.94 fecal pellets/3 rats

SMILES: Nc1ncc(-c2ccncc2)c(-c2ccco2)n1 [Compound I, 2-Amino-4-(2-furyl)-5-(4-pyridyl)pyrimidine]
- Defecation-promoting action (in words) (SD IGS rats [2]; rats, oral, Table 4): evidently higher defecation-promoting action
- Diuretic action (in words) [3]: weaker diuretic action than the A1-selective antagonist KW3902

SMILES: CCNC(=O)[C@H]1O[C@@H](n2cnc3c(N)nc(NCCc4ccc(CCC(=O)O)cc4)nc32)[C@H](O)[C@@H]1O [CGS21680, 2-p-[2-carboxyethyl]phenetylamino-5′-N-ethylarboxyamide adenosine]
- Relaxing action ([4]; 1 μM): did not act
- Antagonism of the relaxing action of NECA and CPA ([6]; 10 μM): not antagonized
- Relaxation of muscles contracted by electrical stimulation [5]: very weak

SMILES: CCNC(=O)[C@H]1O[C@@H](n2cnc3c(N)ncnc32)[C@H](O)[C@@H]1O [NECA, 5′-N-ethylcarboxyamide adenosine]
- Relaxation of Carbachol-contracted muscles [6]: relaxation was observed
- Relaxing action on contraction stimulated by acetylcholine [8]: did not exhibit a relaxing action
- Relaxation of muscles contracted by electrical stimulation [5]: relaxation was observed

SMILES: OC[C@H]1O[C@@H](n2cnc3c(NC4CCCC4)ncnc32)[C@H](O)[C@@H]1O [CPA]
- Relaxation of Carbachol-contracted muscles [6]: relaxation was observed
- Relaxing action on contraction stimulated by acetylcholine [8]: did not exhibit a relaxing action
- Relaxation of muscles contracted by electrical stimulation [5]: relaxation was observed
